Molecules are shown by their SMILES.

The conditions of data set [1]: humans; cited from earlier work.
In a further data set the target is T1, α3 GlyR (Rattus norvegicus, UniProt P24524).
T1 construct: expressed in transfected cells; host or cells: HEK293 (ATCC CRL-1573)
T1 sequence (P24524 34-464): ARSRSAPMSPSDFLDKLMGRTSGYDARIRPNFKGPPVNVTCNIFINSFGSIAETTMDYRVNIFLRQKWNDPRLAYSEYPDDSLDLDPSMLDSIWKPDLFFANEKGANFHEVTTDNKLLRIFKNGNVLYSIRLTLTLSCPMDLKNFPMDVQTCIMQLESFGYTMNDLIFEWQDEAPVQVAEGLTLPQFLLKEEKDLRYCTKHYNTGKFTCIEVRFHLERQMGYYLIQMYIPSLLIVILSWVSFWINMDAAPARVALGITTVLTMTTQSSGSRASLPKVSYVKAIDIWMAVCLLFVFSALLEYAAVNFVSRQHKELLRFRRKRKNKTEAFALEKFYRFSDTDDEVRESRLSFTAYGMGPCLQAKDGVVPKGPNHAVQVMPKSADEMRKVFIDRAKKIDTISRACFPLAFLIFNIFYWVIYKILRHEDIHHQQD
As to conditions: cited from earlier work.

For data set [2], the system named is recombinant and native GABAARs. As to conditions: cited from earlier work.
The target in a further data set is T2, α1 GlyR (Rattus norvegicus, UniProt P07727).
T2 construct: expressed in transfected cells; host or cells: HEK293 (ATCC CRL-1573)
T2 sequence (P07727 29-457): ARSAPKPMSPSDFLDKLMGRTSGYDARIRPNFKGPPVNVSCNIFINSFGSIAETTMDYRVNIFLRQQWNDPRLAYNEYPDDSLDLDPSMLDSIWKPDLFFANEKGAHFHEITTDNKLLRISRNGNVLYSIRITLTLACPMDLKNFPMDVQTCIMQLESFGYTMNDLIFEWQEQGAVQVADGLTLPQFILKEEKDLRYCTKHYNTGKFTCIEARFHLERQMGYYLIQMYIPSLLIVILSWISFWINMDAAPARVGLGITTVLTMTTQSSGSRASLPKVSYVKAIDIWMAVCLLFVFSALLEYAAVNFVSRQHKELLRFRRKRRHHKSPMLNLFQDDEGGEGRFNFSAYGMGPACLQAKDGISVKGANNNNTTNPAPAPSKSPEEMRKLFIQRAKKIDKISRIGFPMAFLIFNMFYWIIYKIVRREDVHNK
As to conditions: homomeric α1GlyRs; cited from earlier work.

A further data set has as its target T3, α2 GlyR (Rattus norvegicus, UniProt P22771).
T3 construct: The cells were transfected with plasmids encoding the following proteins; expressed in transfected cells; host or cells: HEK293 (ATCC CRL-1573)
T3 sequence (P22771 28-452): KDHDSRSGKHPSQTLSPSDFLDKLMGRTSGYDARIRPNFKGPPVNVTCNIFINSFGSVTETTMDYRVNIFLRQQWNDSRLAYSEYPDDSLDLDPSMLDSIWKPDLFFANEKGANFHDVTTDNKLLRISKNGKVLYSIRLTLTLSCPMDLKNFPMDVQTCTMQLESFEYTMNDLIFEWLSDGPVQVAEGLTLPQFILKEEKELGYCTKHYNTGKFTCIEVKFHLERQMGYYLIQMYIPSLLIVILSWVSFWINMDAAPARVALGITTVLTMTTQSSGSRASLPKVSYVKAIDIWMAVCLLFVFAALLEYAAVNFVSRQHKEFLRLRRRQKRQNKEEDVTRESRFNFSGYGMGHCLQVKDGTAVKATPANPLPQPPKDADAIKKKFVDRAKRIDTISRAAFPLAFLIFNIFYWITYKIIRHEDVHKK
As to conditions: cited from earlier work.

The test system of a further data set is Spinal GlyRs. As to conditions: cited from earlier work.
The test system of the next data set is native GlyRs. As to conditions: cited from earlier work.
The next data set addresses T4, α1β GlyR (Rattus norvegicus, UniProt P07727+P20781).
T4 construct: The cells were transfected with plasmids encoding the following proteins; expressed in transfected cells; host or cells: HEK293 (ATCC CRL-1573)
The data set can be described thus: cell-based. As for the experimental part:
The cells were transfected with plasmids encoding the following proteins: (i). rat GlyR α (1, 2, 3) subunits alone or combined with rat β subunits (Uniprot Accession Numbers: Q546L7, P22771, P20236, P20781); and (ii). rat GABAAR α1 combined with rat β2 and γ2 subunits (Uniprot Accession Numbers: P62813, P63138, P18508). The EGFP expression was used as a marker of successful protein expression. The transfection was performed using Lipofectamine 2000 (Invitrogen, ThermoFisher, Carlsbad, CA, USA) using the fabricant protocol. The plasmids used to express GlyRs and GABAARs have been previously described. To track the successful expression of GlyR β subunits and the GABAA γ2 or β2 subunit, these proteins were subcloned in the pIRES2-EGFP vector. The transfection ratio to obtain β-containing GlyRs was 1:5 of α:β, while the expression of γ2-containing GABAA receptors was 1:2:5 of α:β:γ2 [14, 15]. Chimeric GlyRs were described in a previous report. Site directed mutagenesis was performed by Charm Gene Science Mutagenex LLC. (Cumming, GA, USA). All the constructs were checked by full-length sequencing (SNPSaurus, Eugene, OR, USA).
In brief, patch electrodes (3–4 MΩ) were pulled from borosilicate glasses in a PC-100 puller (Narishige, Tokyo, Japan); then, they were filled with an intracellular solution, which contained (in mM) 120 CsCl, 8 EGTA, 10 HEPES (pH 7.4), 4 MgCl2, 0.5 GTP, and 2 ATP. The extracellular solution contained (in mM) 140 NaCl, 5.4 KCl, 2.0 CaCl2, 1.0 MgCl2, 10 HEPES (pH 7.4), and 10 glucose. Whole-cell patch-clamp recordings were performed at −60 mV with an Axoclamp 200B (Molecular Devices, Sunnyvale, CA, USA) or with HEKA EPC-10 (HEKA Elektronik GmbH, Reutlingen, Germany) amplifiers. […] Brief (3–5 s) pulses of agonist together with alkaloids were applied to cells. Stock solutions of the alkaloids were prepared in high purity distilled water. Aliquots of these stock solutions were diluted in reservoirs containing extracellular solution. […] The concentration–response curve parameters for the alkaloid inhibition (IC50, nH, and the maximal current inhibition) were obtained from the fitted curve of normalized concentration–response data points to the equation Iagonist = Imax (agonist)nH/((agonist)nH + (EC50)nH). The IC50 curves are best-fit mean ± SE from pooled data. […] The inhibition constant (Ki) was calculated using the Cheng–Prusoff equation (Ki = IC50/((2 + ([Agonist]/EC50)^nH)^1/nH − 1). The concentration of agonist corresponds to the sub-saturating agonist concentration used to obtain the IC50 for each alkaloid on a given GlyR subtype.

T4 sequence (P20781 23-496, one chain of several): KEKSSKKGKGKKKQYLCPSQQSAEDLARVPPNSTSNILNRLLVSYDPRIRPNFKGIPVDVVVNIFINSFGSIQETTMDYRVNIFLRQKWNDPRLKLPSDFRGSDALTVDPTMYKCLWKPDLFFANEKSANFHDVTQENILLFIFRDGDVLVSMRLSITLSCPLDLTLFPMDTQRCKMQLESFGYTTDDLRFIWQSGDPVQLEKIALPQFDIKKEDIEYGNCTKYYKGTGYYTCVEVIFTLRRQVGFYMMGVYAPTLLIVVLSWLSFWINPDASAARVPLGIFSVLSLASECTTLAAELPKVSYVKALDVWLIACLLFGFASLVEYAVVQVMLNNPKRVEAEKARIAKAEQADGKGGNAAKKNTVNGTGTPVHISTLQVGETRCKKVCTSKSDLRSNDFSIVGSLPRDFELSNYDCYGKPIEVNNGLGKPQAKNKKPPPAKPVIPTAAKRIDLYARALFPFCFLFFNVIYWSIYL

As to `C=C[C@]12CN(C)[C@@H]3[C@H]4CO[C@H](C[C@H]41)[C@]1(C(=O)Nc4ccccc41)[C@@H]32` [gelsemine], in data set [1], the lethal plasma concentrations was 13 to 30 µg/mL. The entries for the “modulation of currents (in words)” value on α3 GlyR, on α1 GlyR and on α2 GlyR were “concentration-dependent inhibition”, “bell-shape modulation” and “concentration-dependent inhibition”, respectively. Also, the results for the IC50 (in data set [2]; in the data set on Spinal GlyRs; with native GlyRs) were 55 to 75 µM, about 42 µM and about 40 µM, respectively.

`C=C[C@@]12CN(C)[C@H]3C[C@]14C(=Nc1ccccc14)[C@H]1C[C@@H]2[C@@H]3CO1` [koumine] registered an IC50 against α1β GlyR of 32.5 ± 13.2 µM. In addition, the nH at α1β GlyR (Hill coefficient of inhibition curve) is 0.9 ± 0.5. Further, the “Maximal Modulation” value at α1β GlyR (percentage change of glycine-evoked current) was −90.8 ± 2.3%.

Source of the values: article PMC10970644, “Molecular Pharmacology of Gelsemium Alkaloids on Inhibitory Receptors” (International Journal of Molecular Sciences, 2024).
